The target in one test is T1, Human Calpain 9/NS1 (Homo sapiens, UniProt O14815).
T1 sequence (O14815 1-690): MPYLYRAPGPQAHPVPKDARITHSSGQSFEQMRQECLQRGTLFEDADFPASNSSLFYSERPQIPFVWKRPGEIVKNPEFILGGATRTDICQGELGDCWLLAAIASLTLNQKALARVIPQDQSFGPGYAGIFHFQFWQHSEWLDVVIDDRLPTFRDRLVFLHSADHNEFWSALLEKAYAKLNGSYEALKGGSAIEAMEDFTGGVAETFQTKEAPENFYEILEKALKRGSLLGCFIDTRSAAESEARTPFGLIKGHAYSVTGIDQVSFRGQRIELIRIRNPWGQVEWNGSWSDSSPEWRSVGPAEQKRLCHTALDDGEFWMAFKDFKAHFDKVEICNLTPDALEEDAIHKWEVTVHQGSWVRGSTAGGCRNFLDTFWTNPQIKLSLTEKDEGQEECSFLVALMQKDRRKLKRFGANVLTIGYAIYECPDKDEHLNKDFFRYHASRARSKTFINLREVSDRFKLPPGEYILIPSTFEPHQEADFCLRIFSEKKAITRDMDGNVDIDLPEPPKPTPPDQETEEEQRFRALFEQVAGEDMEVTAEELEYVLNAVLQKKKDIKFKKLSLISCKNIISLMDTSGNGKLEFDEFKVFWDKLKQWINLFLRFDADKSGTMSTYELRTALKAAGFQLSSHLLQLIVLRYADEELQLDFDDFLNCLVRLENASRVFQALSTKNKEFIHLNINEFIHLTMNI
T1 sequence (P04632 1-268 partner): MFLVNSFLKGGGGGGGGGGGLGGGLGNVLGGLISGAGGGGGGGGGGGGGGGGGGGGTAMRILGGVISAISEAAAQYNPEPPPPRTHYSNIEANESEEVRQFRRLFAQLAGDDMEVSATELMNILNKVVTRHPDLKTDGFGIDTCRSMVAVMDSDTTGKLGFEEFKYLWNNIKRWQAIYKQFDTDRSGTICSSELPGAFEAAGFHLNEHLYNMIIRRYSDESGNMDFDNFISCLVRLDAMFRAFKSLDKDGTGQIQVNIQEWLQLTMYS
In words: Calpain inhibition, continuous fluorescence (FRET substrate) assay, calpain 9. Format: biochemical. As to conditions: SensoLyte 520 FRET substrate, 25C. How it is done: (§1) Calpain 1, 2, and 9 activity and inhibition thereof was assessed by means of a continuous fluorescence assay. The SensoLyte 520 Calpain substrate (Anaspec Inc) was optimized for detecting calpain activity. This substrate contains an internally quenched 5-FAM/QXLTM 520 FRET pair. Calpains 1, 2, and 9 cleave the FRET substrate into two separate fragments resulting in an increase of 5-FAM fluorescence that is proportional to calpain activity Assays were typically setup in black 384-well plates using automated liquid handling as follows. Calpain assay base buffer typically contains 50 mM Tris, pH 7.5, 100 mM NaCl and 1 mM DTT. Inhibitors were serially diluted in DMSO and used to setup 2× mixtures with calpains in the aforementioned buffer. After incubation at ambient temperature (25C), the reaction was initiated by adding a 2× mix of the fluorescent peptide substrate and CaCl2) (required for in-situ calpain activation) in the same buffer. Reaction progress curve data were typically collected for 10 min using excitation/emission wavelengths of 490 nm/520 nm on SpectraMax i3× or the FLIPR-Tetra plate readers (Molecular Devices Inc). Reaction rates were calculated from progress curve slopes typically over 1-5 min. Dose response curves (rate vs. log inhibitor concentration) were typically fit to a 4-parameter logistic function to extract IC50 values.

The target of a further test is T2, Human Calpain 2/NS1 (Homo sapiens, UniProt P17655).
T2 sequence (P17655 1-700): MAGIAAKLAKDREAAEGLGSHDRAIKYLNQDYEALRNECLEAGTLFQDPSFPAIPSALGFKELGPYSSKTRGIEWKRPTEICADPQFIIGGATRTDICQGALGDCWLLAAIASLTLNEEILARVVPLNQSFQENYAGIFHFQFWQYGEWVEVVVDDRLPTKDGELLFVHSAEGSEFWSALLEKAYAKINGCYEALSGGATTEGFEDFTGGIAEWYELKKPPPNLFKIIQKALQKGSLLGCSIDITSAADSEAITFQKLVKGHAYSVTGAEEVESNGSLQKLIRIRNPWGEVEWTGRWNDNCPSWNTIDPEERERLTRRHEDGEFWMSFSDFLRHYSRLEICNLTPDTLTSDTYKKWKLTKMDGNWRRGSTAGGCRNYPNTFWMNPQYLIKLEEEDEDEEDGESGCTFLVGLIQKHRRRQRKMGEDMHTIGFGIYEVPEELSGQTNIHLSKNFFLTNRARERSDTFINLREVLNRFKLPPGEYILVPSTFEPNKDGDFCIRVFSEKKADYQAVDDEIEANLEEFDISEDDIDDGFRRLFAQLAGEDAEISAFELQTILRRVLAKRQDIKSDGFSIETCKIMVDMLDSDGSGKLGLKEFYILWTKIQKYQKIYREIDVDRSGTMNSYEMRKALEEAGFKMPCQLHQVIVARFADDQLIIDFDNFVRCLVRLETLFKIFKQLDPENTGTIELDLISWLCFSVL
T2 sequence (P04632 1-268 partner): T1 sequence (P04632 1-268 partner)
In words: Calpain inhibition, continuous fluorescence (FRET substrate) assay, calpain 2. Format: biochemical. To be noted: SensoLyte 520 FRET substrate, 25C. How it is done:
as §1

A further test addresses T3, Human Calpain 1/NS1 (Homo sapiens, UniProt P07384).
T3 sequence (P07384 1-714): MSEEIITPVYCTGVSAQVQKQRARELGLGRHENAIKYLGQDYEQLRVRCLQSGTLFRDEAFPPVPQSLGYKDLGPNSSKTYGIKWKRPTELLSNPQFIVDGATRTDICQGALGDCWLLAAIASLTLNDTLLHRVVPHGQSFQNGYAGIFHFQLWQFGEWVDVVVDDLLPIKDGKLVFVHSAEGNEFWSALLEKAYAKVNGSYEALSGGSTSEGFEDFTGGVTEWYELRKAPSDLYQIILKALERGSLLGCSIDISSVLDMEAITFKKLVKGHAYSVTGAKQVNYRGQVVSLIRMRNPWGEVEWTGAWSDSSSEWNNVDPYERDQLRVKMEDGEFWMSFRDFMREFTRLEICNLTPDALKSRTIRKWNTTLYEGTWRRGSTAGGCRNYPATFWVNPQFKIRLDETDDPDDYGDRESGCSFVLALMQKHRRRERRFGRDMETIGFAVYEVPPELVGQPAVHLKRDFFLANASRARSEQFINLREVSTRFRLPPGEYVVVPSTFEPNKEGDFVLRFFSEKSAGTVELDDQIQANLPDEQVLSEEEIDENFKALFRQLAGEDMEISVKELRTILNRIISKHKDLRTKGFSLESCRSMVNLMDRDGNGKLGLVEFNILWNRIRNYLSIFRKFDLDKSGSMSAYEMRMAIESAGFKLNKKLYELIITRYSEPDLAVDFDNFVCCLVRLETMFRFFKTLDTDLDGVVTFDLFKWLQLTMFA
T3 sequence (P04632 1-268 partner): T1 sequence (P04632 1-268 partner)
The test can be described thus: Calpain inhibition, continuous fluorescence (FRET substrate) assay, calpain 1. Format: biochemical. To be noted: SensoLyte 520 FRET substrate, 25C. How it is done:
as §1

Test [1] has as its system Calpain activity in SH-SY5Y cells. In words: SH-SY5Y Suc-LLVY-AMC fluorescence assay. Format: cell-based. As to conditions: Homo sapiens; SH-SY5Y cells, 100 uM Suc-LLVY-AMC; read-out: SH-SY5Y + AMC IC50.
For test [2] the test system is unchanged. In words: SH-SY5Y spectrin breakdown product (SBDP-150) western blot assay. To be noted: Homo sapiens; SH-SY5Y cells, 25 uM A23187, SBDP-150 western blot; read-out: SH-SY5Y Spectrin IC50. Format: cell-based. Background: A western blot detects proteins with antibodies after separation by electrophoresis.

Regarding `O=C(O)C(=O)C(Cc1ccccc1)NC(=O)c1nsnc1-c1cccc2c1OC(F)(F)O2` (stereo not shown) [Compound 107, 3-(4-(2,2-DIFLUOROBENZO[D][1,3]DIOXOL-4-YL)-1,2,5-THIADIAZOLE-3-CARBOXAMIDO)-2-OXO-4-PHENYLBUTANOIC ACID], the IC50 at Human Calpain 9/NS1 was less than 3 µM; on Human Calpain 2/NS1, less than 3 µM; against Human Calpain 1/NS1, less than 3 µM; in test [1], 10 to 25 µM.
As to `CC(C)n1c(=O)oc2c(-c3nn(C)cc3C(=O)NC(Cc3ccccc3)C(=O)C(N)=O)cccc21` (stereo not shown) [Compound 114, N-(4-AMINO-3,4-DIOXO-1-PHENYLBUTAN-2-YL)-3-(3-ISOPROPYL-2-OXO-2,3-DIHYDROBENZO[D]OXAZOL-7-YL)-1-METHYL-1H-PYRAZOLE-4-CARBOXAMIDE], the concentration for half-maximal inhibition (IC50) at Human Calpain 9/NS1 is less than 3 µM; against Human Calpain 2/NS1, less than 3 µM; on Human Calpain 1/NS1 it was less than 3 µM; in test [1], greater than 25 µM.
For the compound `Cc1nc(-c2c(F)cccc2F)c(C(=O)NC(Cc2ccccc2)C(=O)C(=O)O)o1` (stereo not shown) [Compound 108, 3-(4-(2,6-DIFLUOROPHENYL)-2-METHYLOXAZOLE-5-CARBOXAMIDO)-2-OXO-4-PHENYLBUTANOIC ACID], the IC50 was less than 3 µM on Human Calpain 9/NS1, less than 3 µM at Human Calpain 2/NS1, less than 3 µM against Human Calpain 1/NS1 and less than 10 µM in test [1].
On to `O=C(NC(Cc1ccccc1)C(=O)CO)c1nsnc1-c1ccccc1` (stereo not shown) [Compound 111, N-(4-HYDROXY-3-OXO-1-PHENYLBUTAN-2-YL)-4-PHENYL-1,2,5-THIADIAZOLE-3-CARBOXAMIDE], for which the IC50 on Human Calpain 9/NS1 is greater than 10 µM; against Human Calpain 2/NS1 it was 3 to 10 µM; against Human Calpain 1/NS1 it was 3 to 10 µM; in test [1], greater than 25 µM.
As to `O=C(O)C(=O)C(Cc1ccccc1)NC(=O)c1nsnc1-c1cccc2oc(=O)[nH]c12` (stereo not shown) [Compound 106, 2-OXO-3-4-(2-OXO-2,3-DIHYDROBENZO[D]OXAZOL-4-YL)-1,2,5-THIADIAZOLE-3-CARBOXAMIDO)-4-PHENYLBUTANOIC ACID], the IC50 was less than 3 µM against Human Calpain 9/NS1, less than 3 µM at Human Calpain 2/NS1, less than 3 µM against Human Calpain 1/NS1 and 10 to 25 µM in test [1].
With `NC(=O)C(=O)C(Cc1ccccc1)NC(=O)c1cn(C(F)F)nc1-c1cnc2ccccc2n1` (stereo not shown) [Compound 25, N-(4-AMINO-3,4-DIOXO-1-PHENYLBUTAN-2-YL)-1-(DIFLUOROMETHYL)-3-(QUINOXALIN-2-YL)-1H-PYRAZOLE-4-CARBOXAMIDE], the IC50 on Human Calpain 9/NS1 is less than 3 µM; against Human Calpain 2/NS1 it was less than 3 µM; against Human Calpain 1/NS1 it was less than 3 µM; in test [2], 10 to 25 µM.
Turning to `CONC(=O)C(=O)C(Cc1ccccc1)NC(=O)c1cccnc1-n1ccc(-c2ccccc2)n1` (stereo not shown) [Compound 113, N-(4-(METHOXYAMINO)-3,4-DIOXO-1-PHENYLBUTAN-2-YL)-2-(3-PHENYL-1H-PYRAZOL-1-YL)NICOTINAMIDE], the IC50 against Human Calpain 9/NS1 was less than 3 µM; against Human Calpain 2/NS1, less than 3 µM; against Human Calpain 1/NS1, less than 3 µM; in test [1], 10 to 25 µM.
As to `Cc1nc(-c2ccccc2F)c(C(=O)NC(Cc2ccc(F)cc2)C(=O)C(N)=O)o1` (stereo not shown) [Compound 73, N-(4-AMINO-1-(4-FLUOROPHENYL)-3,4-DIOXOBUTAN-2-YL)-4-(2-FLUOROPHENYL)-2-METHYLOXAZOLE-5-CARBOXAMIDE], the IC50 was less than 3 µM against Human Calpain 9/NS1, less than 3 µM on Human Calpain 2/NS1, less than 3 µM on Human Calpain 1/NS1 and less than 10 µM in test [2].
`COC(=O)C(=O)C(Cc1ccccc1)NC(=O)c1cn(C)nc1-c1cccc(F)c1` (stereo not shown) [Compound 74, METHYL-3-(3-(3-FLUOROPHENYL)-1-METHYL-1H-PYRAZOLE-4-CARBOXAMIDO)-2-OXO-4-PHENYLBUTANOATE]: the IC50 at Human Calpain 9/NS1 is less than 3 µM; against Human Calpain 2/NS1, less than 3 µM; on Human Calpain 1/NS1, less than 3 µM; in test [2], greater than 25 µM.
Regarding `Cn1cc(C(=O)NC(Cc2ccccc2)C(=O)C(N)=O)c(-c2cccc3cnn(C)c23)n1` (stereo not shown) [Compound 33, N-(4-AMINO-3,4-DIOXO-1-PHENYLBUTAN-2-YL)-1-METHYL-3-(1-METHYL-1H-INDAZOL-7-YL)-1H-PYRAZOLE-4-CARBOXAMIDE], the IC50 on Human Calpain 9/NS1 is less than 3 µM; against Human Calpain 2/NS1 it was less than 3 µM; on Human Calpain 1/NS1, 3 to 10 µM; in test [2], greater than 25 µM.
For `CN(C)NC(=O)C(=O)C(Cc1ccccc1)NC(=O)c1nsnc1-c1ccccc1` (stereo not shown) [Compound 109, N-(4-(2,2-DIMETHYLHYDRAZINEYL)-3,4-DIOXO-1-PHENYLBUTAN-2-YL)-4-PHENYL-1,2,5-THIADIAZOLE-3-CARBOXAMIDE], the IC50 against Human Calpain 9/NS1 is less than 3 µM; against Human Calpain 2/NS1, less than 3 µM; against Human Calpain 1/NS1, less than 3 µM; in test [1], 10 to 25 µM.
In the case of `NC(=O)C(=O)C(Cc1ccccc1)NC(=O)c1nsnc1-c1cccc2c1CC(=O)N2` (stereo not shown) [Compound 115, N-(4-AMINO-3,4-DIOXO-1-PHENYLBUTAN-2-YL)-4-(2-OXOINDOLIN-4-YL)-1,2,5-THIADIAZOLE-3-CARBOXAMIDE], the IC50 against Human Calpain 9/NS1 was less than 3 µM; against Human Calpain 2/NS1, less than 3 µM; at Human Calpain 1/NS1, less than 3 µM; in test [1], less than 10 µM.
On to `Cn1cc(C(=O)NC(Cc2ccccc2)C(=O)C(N)=O)c(-c2cccc3c2OC(C)(C)O3)n1` (stereo not shown) [Compound 112, N-(4-AMINO-3,4-DIOXO-1-PHENYLBUTAN-2-YL)-3-(2,2-DIMETHYLBENZO[D][1,3]DIOXOL-4-YL)-1-METHYL-1H-PYRAZOLE-4-CARBOXAMIDE], for which the IC50 was less than 3 µM against Human Calpain 9/NS1, less than 3 µM on Human Calpain 2/NS1, less than 3 µM on Human Calpain 1/NS1 and greater than 25 µM in test [1].

By IC50 is commonly meant the concentration that inhibits the measured activity by half.
